Tests used:
Type in all cases: cell-based
human tumor H5340 ** = assay: Human Tumor Stem Cell Assay, colony growth after one hour exposure; conditions: 1 h
Description: (§1) The in vitro Human Tumor Stem Cell Assay procedure described as follows has several advantages for testing the effectiveness of chemotherapy drugs such as the 3-(heteroarylalkylene)-2,4(3H,5H)-furandiones. The first advantage is that fresh tumor cells from a variety of tumor types were used rather than a small number of cell lines which have undergone severe selection pressures as they are passed in vitro. The second advantage is that only the anchorage-independent tumor cells will form colonies in soft agar so that any non-malignant cells present in the sample will not form colonies. Perhaps the most important advantage, however, is the emphasis on cells which have the ability to form colonies. These cells, which are generally called stem cells, usually comprise only a small percentage of all tumor cells. They are thought to be the most important cells for growth and distant spread of a tumor. In particular, these cells have the potential to leave the primary tumor and form new tumors at distant sites (called metastases). It is the effectiveness against these very important stem cells that the Human Tumor Stem Cell Assay measures.
(§2) One of the 3-(heteroarylalkylene)-2,4(3H,5H)-furandione compounds, 3-[(5-methyl-2-thienyl) methylene]-2,4(3H,5H)-furandione was evaluated against a series of 10 human tumors in the in vitro Human Tumor Cell Assay, along with conventional and standard chemotherapy agents.
(§3) In the procedure, a single cell suspension was prepared from tumors excised from patients during therapeutic or diagnostic surgical procedures. The human tumor cells were exposed to known anticancer drugs or to [(5-methyl-2-thienyl)methylene]-2,4 (3H, 5H)-furandione at a low (0.2 mcg/ml) or a high (1.0 mcg/ml) concentration for one hour. […] The suspension was washed with tissue culture medium to remove the drug.
(§4) The suspension was then cultured in a double soft agar suspension. Control cells which had been treated identically, except for exposure to the drugs, were also cultured. After one to two weeks, both the tumor cells and the control cells formed colonies in the soft agar which were enumerated under a microscope. The number of colonies grown from the drug-treated cells was compared to the number of colonies grown from the control cells, and the percentage growth after exposure to the drug was calculated.
(§5) The results are illustrated in Table 1, wherein the various numbers indicate the percentage of growth. For example, a small number like 6 means that the number of colonies is only 6% of the number without addition of the compound. On the other hand, a large number like 120 means that the number of colonies is 20% greater with the compound than without.
(§6) Of the nine tumors for which the higher concentration (1.0 mcg/ml) of the furandione was used, five gave inhibition of colony growth corresponding to borderline sensitive (30-50% growth) and four gave inhibition corresponding to sensitivity (0-30% growth). Clinical drugs are normally tested at 10% of their peak plasma concentration. For the standard chemotherapy drugs shown in Table 1, the low concentration (LO) corresponds to this 10% level, and the high concentration (HI) is at 50% of the peak plasma concentration. Of the same nine tumors, only two would have been rated as sensitive or borderline sensitive to any of the other clinical drugs tested.

[1] = system: human tumor H5325 SARCOMA; assay: as above; conditions: 1 h
Description: as §1, §2, §3, §4, §5, §6

human tumor H5318 OVARY = assay: as above; conditions: 1 h
Description: as §1, §2, §3, §4, §5, §6

human tumor H5349 BREAST = assay: as above; conditions: 1 h
Description: as §1, §2, §3, §4, §5, §6

human tumor H5331 OVARY = assay: as above; conditions: 1 h
Description: as §1, §2, §3, §4, §5, §6

[2] = system: human tumor H5322 STOMACH; assay: as above; conditions: 1 h
Description: as §1, §2, §3, §4, §5, §6

human tumor H5315 BREAST = assay: as above; conditions: LO: furandione 0.2 mcg/ml; standard drugs 10% of peak plasma concentration; 1 h
Description: as §1, §2, §3, §4, §5, §6

human tumor H5337 COLON = assay: as above; conditions: 1 h
Description: as §1, §2, §3, §4, §5, §6

human tumor H5319 BREAST = assay: as above; conditions: 1 h
Description: as §1, §2, §3, §4, §5, §6

[3] = system: K562 cells (human chronic granulocytic leukemia); assay: K562 human leukemia cell suspension culture, cell concentration; conditions: 1 ug/ml
Experimental: In this example, 1 mcg/ml of 3[[5-methyl-2-thienyl]methylene]2, 4 (3H, 5H) furandione was compared to 1 mcg/ml of 3[[3-methyl-2-thienyl]methylene]2, 4 (3H, 5H) furandione.
A conventionally available cell line (K562) derived from human chronic granulocytic leukemia was employed in an in vitro procedure. The leukemia cell line was cultured in a suspension of RPMI 1640 plus 10% fetal calf serum. All initial cell concentrations for the cultures were 0.65 times 10^5 cells/ml. Four separate suspension cultures were employed with the first suspension culture having no additions. The second suspension culture included 100 microliters of the solvent DMSO per 10 ml of culture (control). The third culture contained 1 ug/ml of 3[[5-methyl-2 thienyl]methylene]-2, 4 (3H, 5H) furandione and the fourth culture contained 1 ug/ml of 3[[3-methyl-2-thienyl]methylene]-2, 4 (3H, 5H) furandione. The cell concentration of each of the four cultures was determined. After three days and again after five days.

human tumor H5330 THYMUS = assay: Human Tumor Stem Cell Assay, colony growth after one hour exposure; conditions: HI: furandione 1.0 mcg/ml; standard drugs 50% of peak plasma concentration; 1 h
Description: as §1, §2, §3, §4, §5, §6

[4] = HI: furandione 1.0 mcg/ml, standard drugs 50% of peak plasma concentration
[5] = LO: furandione 0.2 mcg/ml, standard drugs 10% of peak plasma concentration

Row | Compound | percentage of growth (colonies vs control) (human tumor H5340 **; [4]) | percentage of growth (colonies vs control) [1, 4] | percentage of growth (colonies vs control) [1, 5] | percentage of growth (colonies vs control) (human tumor H5318 OVARY; [4]) | percentage of growth (colonies vs control) (human tumor H5318 OVARY; [5]) | percentage of growth (colonies vs control) (human tumor H5349 BREAST; [4]) | percentage of growth (colonies vs control) (human tumor H5331 OVARY; [4]) | percentage of growth (colonies vs control) [2, 4] | percentage of growth (colonies vs control) [2, 5] | percentage of growth (colonies vs control) (human tumor H5315 BREAST) | percentage of growth (colonies vs control) (human tumor H5337 COLON; [4]) | percentage of growth (colonies vs control) (human tumor H5319 BREAST; [4]) | percentage of growth (colonies vs control) (human tumor H5330 THYMUS) | further results
1 | CCOC(=O)NC1=C(N2CC2)C(=O)C(NC(=O)OCC)=C(N2CC2)C1=O [AZO, AZIRIDIMYLBENYOQUINONE] | 107% |  |  |  |  |  |  |  |  |  |  |  |  | 
2 | CC[C@]1(O)C[C@@H]2CN(CCc3c([nH]c4ccccc34)[C@@](C(=O)OC)(c3cc4c(cc3OC)N(C)[C@H]3[C@@](O)(C(=O)OC)[C@H](OC(C)=O)[C@]5(CC)C=CCN6CC[C@]43[C@@H]65)C2)C1 [VBL, VINBLASTINE] | 44% | 8% | 9% | 60% | 39% | 65% | 45% | 35% | 40% | 50% | 67% | 6% |  | percentage of growth (colonies vs control) (human tumor H5349 BREAST; [5]): 70%; percentage of growth (colonies vs control) (human tumor H5331 OVARY; [5]): 115%; percentage of growth (colonies vs control) (human tumor H5340 **; [5]): 79%; percentage of growth (colonies vs control) (human tumor H5337 COLON; [5]): 60%; percentage of growth (colonies vs control) (human tumor H5319 BREAST; [5]): 5%
3 | Cc1ccsc1C=C1C(=O)COC1=O [3 methyl, 3[[3-methyl-2-thienyl]methylene]-2, 4 (3H, 5H) furandione] |  |  |  |  |  |  |  |  |  |  |  |  |  | effect on leukemia culture [3]: also shows a decrease in the leukemia cell concentration culture, but the decrease is not as great as with the other compound; Cell Conc. ([3]; 3 Days): 50000 mL⁻¹; Cell Conc. ([3]; 5 Days): 150000 mL⁻¹; cell concentration vs 5-methyl analog ([3]; after five days): slightly higher cell concentration than the 5-methyl analog
4 | COc1cccc2c1C(=O)c1c(O)c3c(c(O)c1C2=O)C[C@@](O)(C(=O)CO)C[C@@H]3O[C@H]1C[C@H](N)[C@H](O)[C@H](C)O1 [ADR, ADRIAMYCIN] |  | 11% | 22% | 60% | 76% | 82% | 105% | 65% | 55% | 75% |  | 100% | 98% | 
5 | Nc1nc(=S)c2[nH]cnc2[nH]1 [Compound 6TG, 6THOQUANINE] | 50% | 69% |  |  |  |  |  | 122% |  |  |  |  |  | percentage of growth (colonies vs control) (human tumor H5340 **; [5]): 75%
6 | CO[C@@]12[C@H](COC(N)=O)C3=C(C(=O)C(C)=C(N)C3=O)N1C[C@@H]1N[C@@H]12 [MTC, MITOMYCIN C] |  |  |  | 90% |  |  | 102% | 69% |  | 59% |  | 72% | 90% | 
7 | CC[C@]1(O)C[C@H]2CN(CCc3c([nH]c4ccccc34)[C@@](C(=O)OC)(c3cc4c(cc3OC)N(C=O)[C@H]3[C@@](O)(C(=O)OC)[C@H](OC(C)=O)[C@]5(CC)C=CCN6CC[C@]43[C@@H]65)C2)C1 [VCR, VINCRISTINE] | 113% |  |  |  |  |  |  |  |  |  |  |  |  | 
8 | O=NN(CCCl)C(=O)NCCCl [BCNU, BISCHLORETHYLNITROSOUREA] |  |  |  | 93% |  |  | 111% |  |  | 108% | 88% | 122% | 74% | 
9 | N.N.[Cl][Pt][Cl] [CPDD, CISPLATIN] | 125% |  | 62% | 38% | 109% | 54% | 69% | 56% | 63% |  | 41% |  | 75% | percentage of growth (colonies vs control) (human tumor H5349 BREAST; [5]): 48%; percentage of growth (colonies vs control) (human tumor H5331 OVARY; [5]): 87%; percentage of growth (colonies vs control) (human tumor H5337 COLON; [5]): 98%

Reference: patent US4996227A, “3-(heteroarylalkyene)- and 3-(arylalkylene)-2,4(3H,5H)-heterocyclic diones as cancer chemotherapy drugs” (priority 1989, dated 1991)
